What all share (format): cell-based
The target in one assay is ATR kinase (Homo sapiens (Human), UniProt Q13535). The assay is described as follows: Assay b) ATR cellular potency assay (pChk1 Ser345 in HT29 cells treated with 4NQO). The conditions noted are these: HT29 cells, pChk1 Ser345 after 4NQO; geometric mean where repeated; read-out: Assay b) ATR Cell IC50.
In a further assay the target is mTOR (Homo sapiens (Human), UniProt P42345). The assay is described as follows: Assay d) mTOR cellular potency assay (phospho-AKT Ser473 in MDA-MB-468 cells). The conditions noted are these: MDA-MB-468 cells, phospho-AKT Ser473, 2 h; geometric mean where repeated; read-out: Assay d) mTOR Cell IC50.
The target in another assay is ATM kinase (Homo sapiens (Human), UniProt Q13315). The assay is described as follows: Assay a) ATM cellular potency assay (pATM Ser1981 in X-ray irradiated HT29 cells). The conditions noted are these: HT29 cells, pATM Ser1981 after X-ray irradiation; geometric mean where repeated; read-out: Assay a) ATM Cell IC50.
For another assay, the target named is PI3K-α (Homo sapiens, UniProt P42336). The assay is described as follows: Assay c) PI3K cellular potency assay (phospho-Akt T308 ELISA in BT474 cells). The conditions noted are these: BT474 cells, phospho-Akt T308, 2 h; geometric mean where repeated; read-out: Assay c) PI3Kα Cell IC50.

Structures can show the parent of a compound that is named as a salt. Bounds are passed on as bounds.

Sequence of PI3K-α (P42336 whole entry, looked up): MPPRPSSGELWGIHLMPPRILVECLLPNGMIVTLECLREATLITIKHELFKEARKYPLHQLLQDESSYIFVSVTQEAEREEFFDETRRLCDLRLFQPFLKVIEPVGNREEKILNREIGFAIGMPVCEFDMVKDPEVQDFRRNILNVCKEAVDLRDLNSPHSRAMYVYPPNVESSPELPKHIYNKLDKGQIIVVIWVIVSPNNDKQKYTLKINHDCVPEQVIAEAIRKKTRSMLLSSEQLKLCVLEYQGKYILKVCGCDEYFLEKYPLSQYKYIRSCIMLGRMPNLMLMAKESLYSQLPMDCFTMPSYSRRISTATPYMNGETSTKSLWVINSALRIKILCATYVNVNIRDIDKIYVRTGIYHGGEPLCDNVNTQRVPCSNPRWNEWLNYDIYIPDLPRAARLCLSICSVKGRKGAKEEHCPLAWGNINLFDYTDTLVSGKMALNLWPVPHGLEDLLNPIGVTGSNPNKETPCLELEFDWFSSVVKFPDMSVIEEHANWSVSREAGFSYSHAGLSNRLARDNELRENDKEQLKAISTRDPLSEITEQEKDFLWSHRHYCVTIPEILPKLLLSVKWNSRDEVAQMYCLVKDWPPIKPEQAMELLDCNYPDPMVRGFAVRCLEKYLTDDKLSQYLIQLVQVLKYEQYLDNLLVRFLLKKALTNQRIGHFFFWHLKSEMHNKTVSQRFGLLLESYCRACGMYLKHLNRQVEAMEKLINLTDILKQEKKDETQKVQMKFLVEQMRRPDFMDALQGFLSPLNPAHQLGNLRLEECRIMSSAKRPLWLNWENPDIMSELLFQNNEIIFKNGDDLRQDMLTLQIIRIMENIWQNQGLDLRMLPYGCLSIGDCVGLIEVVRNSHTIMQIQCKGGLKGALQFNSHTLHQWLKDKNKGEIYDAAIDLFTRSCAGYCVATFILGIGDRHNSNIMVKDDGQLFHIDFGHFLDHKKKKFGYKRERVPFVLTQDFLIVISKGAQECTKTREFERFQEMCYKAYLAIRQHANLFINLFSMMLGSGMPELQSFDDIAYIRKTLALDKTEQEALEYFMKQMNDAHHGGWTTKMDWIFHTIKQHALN
Sequence of ATM kinase (Q13315 whole entry): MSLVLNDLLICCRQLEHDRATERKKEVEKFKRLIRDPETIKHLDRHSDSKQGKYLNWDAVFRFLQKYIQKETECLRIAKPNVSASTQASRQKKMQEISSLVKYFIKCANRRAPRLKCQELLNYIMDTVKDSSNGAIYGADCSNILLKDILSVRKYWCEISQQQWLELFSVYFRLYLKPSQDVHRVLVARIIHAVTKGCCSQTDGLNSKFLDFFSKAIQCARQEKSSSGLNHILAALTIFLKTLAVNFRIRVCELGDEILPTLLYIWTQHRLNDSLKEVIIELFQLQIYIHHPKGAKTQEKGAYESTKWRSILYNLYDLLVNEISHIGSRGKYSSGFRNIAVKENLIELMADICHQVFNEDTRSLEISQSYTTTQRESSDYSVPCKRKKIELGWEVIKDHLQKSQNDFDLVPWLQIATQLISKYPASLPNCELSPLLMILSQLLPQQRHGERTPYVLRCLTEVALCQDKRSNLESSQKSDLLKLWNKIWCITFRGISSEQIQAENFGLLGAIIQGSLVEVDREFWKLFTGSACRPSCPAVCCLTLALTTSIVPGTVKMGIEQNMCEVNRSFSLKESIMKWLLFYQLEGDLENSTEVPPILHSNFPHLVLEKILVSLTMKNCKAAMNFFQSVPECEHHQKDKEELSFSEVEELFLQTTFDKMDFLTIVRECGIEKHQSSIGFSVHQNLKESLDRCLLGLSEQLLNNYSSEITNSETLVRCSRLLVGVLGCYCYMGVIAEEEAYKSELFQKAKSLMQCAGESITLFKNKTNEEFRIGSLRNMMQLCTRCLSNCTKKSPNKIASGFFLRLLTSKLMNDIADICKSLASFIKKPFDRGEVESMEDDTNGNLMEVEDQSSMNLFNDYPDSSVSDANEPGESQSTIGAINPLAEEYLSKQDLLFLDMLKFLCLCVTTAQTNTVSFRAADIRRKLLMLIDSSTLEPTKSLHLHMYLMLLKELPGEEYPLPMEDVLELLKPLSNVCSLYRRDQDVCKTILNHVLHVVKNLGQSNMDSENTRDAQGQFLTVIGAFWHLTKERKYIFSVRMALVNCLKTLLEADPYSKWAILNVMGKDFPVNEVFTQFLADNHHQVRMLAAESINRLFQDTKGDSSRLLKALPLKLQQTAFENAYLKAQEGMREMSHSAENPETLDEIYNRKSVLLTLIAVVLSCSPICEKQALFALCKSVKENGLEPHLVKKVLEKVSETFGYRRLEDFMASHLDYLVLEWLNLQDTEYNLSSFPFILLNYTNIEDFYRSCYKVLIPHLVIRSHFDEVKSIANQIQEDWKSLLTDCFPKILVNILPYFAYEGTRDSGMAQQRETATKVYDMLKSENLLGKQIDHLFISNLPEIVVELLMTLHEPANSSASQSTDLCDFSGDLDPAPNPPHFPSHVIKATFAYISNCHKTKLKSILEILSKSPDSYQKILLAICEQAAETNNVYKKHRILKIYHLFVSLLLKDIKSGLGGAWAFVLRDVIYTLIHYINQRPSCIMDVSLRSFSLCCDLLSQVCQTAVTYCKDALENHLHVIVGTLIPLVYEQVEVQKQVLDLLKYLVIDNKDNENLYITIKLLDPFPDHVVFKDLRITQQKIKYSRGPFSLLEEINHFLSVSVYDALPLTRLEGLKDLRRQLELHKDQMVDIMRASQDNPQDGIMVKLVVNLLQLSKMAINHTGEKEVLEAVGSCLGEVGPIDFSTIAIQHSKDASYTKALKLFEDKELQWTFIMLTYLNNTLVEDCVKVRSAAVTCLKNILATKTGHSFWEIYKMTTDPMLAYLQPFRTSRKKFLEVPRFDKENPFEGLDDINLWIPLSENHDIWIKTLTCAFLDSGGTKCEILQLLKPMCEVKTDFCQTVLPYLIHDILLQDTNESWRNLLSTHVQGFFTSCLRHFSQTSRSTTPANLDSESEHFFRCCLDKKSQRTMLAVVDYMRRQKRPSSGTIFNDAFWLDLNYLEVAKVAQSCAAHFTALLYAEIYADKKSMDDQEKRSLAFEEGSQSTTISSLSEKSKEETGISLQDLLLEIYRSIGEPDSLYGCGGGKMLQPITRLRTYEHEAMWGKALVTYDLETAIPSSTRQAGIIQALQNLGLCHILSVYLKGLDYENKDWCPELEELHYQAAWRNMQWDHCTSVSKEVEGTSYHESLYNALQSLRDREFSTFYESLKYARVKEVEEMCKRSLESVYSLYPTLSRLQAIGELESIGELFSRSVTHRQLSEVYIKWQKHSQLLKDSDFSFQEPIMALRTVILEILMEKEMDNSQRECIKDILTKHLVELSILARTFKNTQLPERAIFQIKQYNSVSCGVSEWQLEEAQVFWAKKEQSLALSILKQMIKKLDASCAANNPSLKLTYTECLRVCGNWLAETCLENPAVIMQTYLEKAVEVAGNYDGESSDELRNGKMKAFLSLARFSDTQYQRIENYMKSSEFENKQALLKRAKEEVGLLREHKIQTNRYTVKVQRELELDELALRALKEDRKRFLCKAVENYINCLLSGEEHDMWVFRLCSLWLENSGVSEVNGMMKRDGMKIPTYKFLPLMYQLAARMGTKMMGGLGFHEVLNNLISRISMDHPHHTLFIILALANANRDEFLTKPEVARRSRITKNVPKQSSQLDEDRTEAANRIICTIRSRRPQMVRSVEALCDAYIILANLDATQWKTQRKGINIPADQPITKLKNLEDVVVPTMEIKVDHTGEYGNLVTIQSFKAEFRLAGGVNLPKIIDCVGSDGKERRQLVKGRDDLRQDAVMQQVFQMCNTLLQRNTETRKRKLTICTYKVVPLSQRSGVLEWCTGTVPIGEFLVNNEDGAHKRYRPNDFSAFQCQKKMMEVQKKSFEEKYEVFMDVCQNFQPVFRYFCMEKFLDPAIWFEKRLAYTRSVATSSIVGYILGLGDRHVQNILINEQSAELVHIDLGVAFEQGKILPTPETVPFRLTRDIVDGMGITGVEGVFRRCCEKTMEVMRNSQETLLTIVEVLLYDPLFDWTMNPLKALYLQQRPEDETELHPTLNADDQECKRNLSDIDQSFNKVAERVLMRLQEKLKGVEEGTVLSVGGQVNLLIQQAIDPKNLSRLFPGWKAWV

In the case of `Cn1c(=O)n(C2CCOCC2)c2c3cc(-c4ccc(OCCCN5CCCCC5)nc4)ccc3ncc21` [Example 37, 3-methyl-1-(oxan-4-yl)-8-[6-(3-piperidin-1-ylpropoxy)pyridin-3-yl]imidazo[5,4-c]quinolin-2-one], the half-inhibitory concentration (IC50) at ATR kinase was > 29400 nM; at mTOR it was 12400 nM; on ATM kinase, 1.2 nM; on PI3K-α, 20700 nM.
For the molecule `CO[C@H]1C[C@@H](n2c(=O)n(C)c3cnc4cc(F)c(-c5ccc(OCCCN(C)C)nc5)cc4c32)C1` [Example 6, 8-[6-(3-dimethylaminopropoxy)pyridin-3-yl]-7-fluoro-1-(cis-3-methoxycyclobutyl)-3-methylimidazo[4,5-c]quinolin-2-one], the half-inhibitory concentration (IC50) at ATR kinase is > 30000 nM; at mTOR, > 16900 nM; at ATM kinase it was 1.05 nM; on PI3K-α, > 30000 nM.
Consider `Cn1c(=O)n([C@@H]2CCCOC2)c2c3cc(-c4ccc(OCCCN5CCC5)nc4)ccc3ncc21` [Example 34, 8-[6-[3-(azetidin-1-yl)propoxy]pyridin-3-yl]-3-mehtyl-1-[(3R)-oxan-3-yl]imidazo[5,4-c]quinolin-2-one], for which the IC50 was > 16900 nM at ATR kinase, 505 nM at mTOR, 0.84 nM at ATM kinase and 402 nM at PI3K-α.
Taken in the same sequence, the figures for `Cn1c(=O)n(C2CCC2)c2c3cc(-c4ccc(OCCCN5CCCC5)nc4)ccc3ncc21` [Example 58, 1-cyclobutyl-3-methyl-8-[6-(3-pyrrolidin-1-ylpropoxy)-3-pyridyl]imidazo[4,5-c]quinolin-2-one] were > 28100 nM, 7290 nM, 0.31 nM and > 9560 nM.
In the same order, the values of `CNCCCOc1ccc(-c2ccc3ncc4c(c3c2)n([C@@H]2CCCOC2)c(=O)n4C)cn1` [Example 43, 3-methyl-8-[6-[3-(methylamino)propoxy]-3-pyridyl]-1-[(3R)-tetrahydropyran-3-yl]imidazo[4,5-c]quinolin-2-one] are 2690 nM, 262 nM, 0.592 nM and 167 nM.
In the same order, the values of `CO[C@@H]1CC[C@@H](n2c(=O)n(C)c3cnc4ccc(-c5ccc(OCCCN(C)C)nc5)cc4c32)C1` [Example 25, 8-[6-(3-Dimethylaminopropoxy)pyridin-3-yl]-1-[(1R,3R)-3-methoxycyclopentyl]-3-methylimidazo[4,5-c]quinolin-2-one] are > 20700 nM, 1190 nM, 0.315 nM and 1050 nM.
For `CN(C)CCCOc1ccc(-c2cc3c(cc2F)ncc2c3n(C3(C)CCOCC3)c(=O)n2C)cn1` [Example 3, 8-[6-(3-Dimethylaminopropoxy)pyridin-3-yl]-7-fluoro-3-methyl-1-(4-methyloxan-4-yl)imidazo[5,4-c]quinolin-2-one], the half-inhibitory concentration (IC50) is > 30000 nM on ATR kinase, 4930 nM on mTOR, 2.03 nM on ATM kinase and 22400 nM on PI3K-α.
Taken in the same sequence, the figures for `Cn1c(=O)n(C2CCCOC2)c2c3cc(-c4ccc(OCCCN5CCC5)nc4)ccc3ncc21` (stereo in doubt) [Example 60, 8-[6-[3-(azetidin-1-yl)propoxy]-3-pyridyl]-3-methyl-1-[(3S)-tetrahydropyran-3-yl]imidazo[4,5-c]quinolin-2-one] were > 24000 nM, 1360 nM, 0.765 nM and 499 nM.
In the same order, the values of `CNCCCOc1ccc(-c2ccc3ncc4c(c3c2)n([C@H]2C[C@@H](OC)C2)c(=O)n4C)cn1` [Example 42, 1-(cis-3-methoxycyclobutyl)-3-methyl-8-[6-(3-methylaminopropoxy)pyridin-3-yl]imidazo[4,5-c]quinolin-2-one] are 4370 nM, 214 nM, 0.249 nM and 321 nM.
In the same order, the values of `Cn1c(=O)n(C2CCOCC2)c2c3cc(-c4ccc(OCCCN5CCC5)nc4)ccc3ncc21` [Example 39, 8-[6-[3-(azetidin-1-yl)propoxy]pyridin-3-yl]-3-methyl-1-(oxan-4-yl)imidazo[5,4-c]quinolin-2-one] are 10700 nM, 1270 nM, 1.33 nM and 828 nM.
Consider `CO[C@H]1CC[C@H](n2c(=O)n(C)c3cnc4ccc(-c5ccc(OCCCN(C)C)nc5)cc4c32)C1` [Example 26, 8-[6-(3-Dimethylaminopropoxy)pyridin-3-yl]-1-[(1S,3S)-3-methoxycyclopentyl]-3-methylimidazo[4,5-c]quinolin-2-one], for which the IC50 on ATR kinase is > 21800 nM; at mTOR, 360 nM; on ATM kinase it was 0.152 nM; on PI3K-α, 331 nM.
Taken in the same sequence, the figures for `CN(C)CCCOc1ccc(-c2cc3c(cc2F)ncc2c3n(C3COC3)c(=O)n2C)cn1` [Example 9, 8-[6-(3-dimethylaminopropoxy)pyridin-3-yl]-7-fluoro-3-methyl-1-(oxetan-3-yl)imidazo[5,4-c]quinolin-2-one] were > 30000 nM, > 21300 nM, 3.8 nM and > 29100 nM.
In the same order, the values of `Cn1c(=O)n([C@H]2CCCOC2)c2c3cc(-c4ccc(OCCCN5CCCCC5)nc4)ccc3ncc21` [Example 31, 3-methyl-1-[(3S)-oxan-3-yl]-8-[6-(3-piperidin-1-ylpropoxy)pyridin-3-yl]imidazo[5,4-c]quinolin-2-one] are > 30000 nM, 19500 nM, 1.09 nM and > 10900 nM.
In the same order, the values of `CN(C)CCCOc1ccc(-c2ccc3ncc4c(c3c2)n([C@@H]2CCCOC2)c(=O)n4C)c(F)n1` [Example 22, 8-[6-(3-dimethylaminopropoxy)-2-fluoropyridin-3-yl]-3-methyl-1-[(3R)-oxan-3-yl]imidazo[5,4-c]quinolin-2-one] are > 30000 nM, 1370 nM, 0.552 nM and 849 nM.
Turning to `Cn1c(=O)n(C2CCC2)c2c3cc(-c4ccc(OCCCN5CCCCC5)nc4)ccc3ncc21` [Example 57, 1-cyclobutyl-3-methyl-8-[6-[3-(1-piperidyl)propoxy]-3-pyridyl]imidazo[4,5-c]quinolin-2-one trifluoroacetic acid salt], the IC50 at ATR kinase was > 30000 nM; at mTOR it was 5770 nM; at ATM kinase it was 0.434 nM; on PI3K-α it was > 14300 nM.
In the same order, the values of `CO[C@@H]1CC[C@@H](n2c(=O)n(C)c3cnc4ccc(-c5ccc(OCCCN6CCCCC6)nc5)cc4c32)C1` [Example 64, 1-[(1R,3R)-3-Methoxycyclopentyl]-3-methyl-8-[6-[3-(1-piperidyl)propoxy]-3-pyridyl]imidazo[4,5-c]quinolin-2-one] are > 24100 nM, 12000 nM, 0.741 nM and > 30000 nM.
With `CO[C@H]1C[C@@H](n2c(=O)[nH]c3cnc4ccc(-c5ccc(OCCCN(C)C)nc5)cc4c32)C1` [Example 12, 8-[6-(3-dimethylaminopropoxy)pyridin-3-yl]-1-(cis-3-methoxycyclobutyl)-3H-imidazo[4,5-c]quinolin-2-one], the IC50 on ATR kinase is > 25200 nM; on mTOR it was 540 nM; on ATM kinase, 1.03 nM; on PI3K-α, 769 nM.
Taken in the same sequence, the figures for `CN(C)CCCOc1ccc(-c2ccc3ncc4c(c3c2)n(C2CCOCC2)c(=O)n4C)c(F)n1` [Example 21, 8-[6-(3-dimethylaminopropoxy)-2-fluoropyridin-3-yl]-3-methyl-1-(oxan-4-yl)imidazo[5,4-c]quinolin-2-one] were > 30000 nM, 797 nM, 0.301 nM and 680 nM.
In the same order, the values of `CO[C@H]1CC[C@H](n2c(=O)n(C)c3cnc4ccc(-c5ccc(OCCCN6CCCCC6)nc5)cc4c32)C1` [Example 65, 1-[(1S,3S)-3-Methoxycyclopentyl]-3-methyl-8-[6-[3-(1-piperidyl)propoxy]-3-pyridyl]imidazo[4,5-c]quinolin-2-one] are > 26600 nM, 6340 nM, 0.22 nM and 1840 nM.
In the same order, the values of `CNCCCOc1ccc(-c2ccc3ncc4c(c3c2)n([C@H]2CCCOC2)c(=O)n4C)cn1` [Example 41, 3-methyl-8-[6-(3-methylaminopropoxy)pyridin-3-yl]-1-[(3S)-oxan-3-yl]imidazo[5,4-c]quinolin-2-one] are 3940 nM, 395 nM, 0.555 nM and 267 nM.
For `CO[C@H]1C[C@@H](n2c(=O)[nH]c3cnc4ccc(-c5ccc(OCCCN6CCCC6)nc5)cc4c32)C1` [Example 35, 1-(cis-3-methoxycyclobutyl)-8-[6-(3-pyrrolidin-1-ylpropoxy)pyridin-3-yl]-3H-imidazo[4,5-c]quinolin-2-one], the IC50 on ATR kinase turned out to be 17800 nM; at mTOR it was 579 nM; on ATM kinase, 0.589 nM; on PI3K-α, 3000 nM.

For the origin of these results see patent US9428503B2, “Imidazo[4,5-c]quinolin-2-one compounds and their use in treating Cancer” (AstraZeneca AB, priority 2014, dated 2016).
